Reference: paper PMC9271885 (eBioMedicine, 2022)
Several values for one entry are separate records, joined by “and”; a condition that tells them apart may be missing. Equal entries are not always repeated.

Key:
[1] = Clinical course of the disease in infected hamsters (normalized weight, clinical signs); assay type: in vivo, Syrian hamsters; conditions: Favipiravir IP 926mg/kg/day BID, inoculum 104 TCID50, sacrifice day 3, Figure 3, individual animals
Protocol: Three-week-old female Syrian hamsters were provided by Janvier Labs (SPF status). Animals were maintained in ISOcage P - Bioexclusion System (Techniplast) with unlimited access to water/food and 14h/10h light/dark cycle. A wooden gnawing block and extra bedding material was provided as cage enrichment. Animals were weighed and monitored daily for the duration of the study to detect the appearance of any clinical signs of illness/suffering. General anesthesia was obtained with isoflurane (Isoflurin®, Axience). Euthanasia, which was also realized under general anesthesia, was performed by cervical dislocation.
Groups of 6 hamsters were intranasally infected with 10^4 TCID50 of virus. a Experimental timeline. b, f, j Viral replication in lung based on infectious titers (measured using a TCID50 assay) expressed in TCID50/g of lung (n=6 animals/group). c, g, k Viral replication in lung based on viral RNA yields (measured using an RT-qPCR assay) expressed in viral genome copies/g of lung (n=6 animals/group). d, h, l Plasma viral loads (measured using an RT-qPCR assay) are expressed in viral genome copies/mL of plasma (the dotted line indicates the detection threshold of the assay) (n=6 animals/group). e, i, m Clinical course of the disease (n=6 animals/group). Normalized weight at day n was calculated as follows: % of initial weight of the animal at day n. Data represent mean ± SD (Details in Supplementary Data 2).

SARS-CoV-2 = assay: Hamster model of SARS-CoV-2 infection, oral NTZ treatment (lung infectious titers, lung viral RNA yields, plasma viral loads); assay type: in vivo, Syrian hamsters; design: Lung Infectious titers / Plasmatic viral RNA yields / Lung Viral RNA yields: unit not given here
[2] = FVP 926mg/kg/day BID intraperitoneally, 3 dpi
[3] = Favipiravir IP 926mg/kg/day BID, inoculum 104 TCID50, sacrifice day 3, Figure 3, individual animals, 926 mg/kg/day

## NC(=O)c1nc(F)c[nH]c1=O [FVP, favipiravir]
[1]
  Normalized weights Day 0: 100
[1]; 926 mg/kg/day
  Normalized weights Day 1: 104.7 and 102.8 and 102.5 and 104.5 and 103.7 and 104.9
  Normalized weights Day 2: 101.3 and 102.5 and 100.8 and 100.6 and 94.2 and 104.4
  Normalized weights Day 3: 97.1 and 105.0 and 92.2 and 91.0 and 105.5 and 105.7
SARS-CoV-2; [2]
  infectious titers in clarified lung homogenates vs untreated animals: significant reductions
  viral RNA yields in clarified lung homogenates vs untreated animals: significant reductions
SARS-CoV-2; [3]
  Lung Infectious titers: 6.755 and 6.354 and 7.035 and 6.515 and 6.109 and 6.625
  Lung Viral RNA yields: 6.542 and 6.443 and 6.907 and 6.536 and 6.197 and 6.702
SARS-CoV-2; Favipiravir IP 926mg/kg/day BID, inoculum 104 TCID50, sacrifice day 3, Figure 3, individual animals, ¤ : Detection threshold at 1000 cp/ml, 926 mg/kg/day
  Plasmatic viral RNA yields: 3.034 and 2.169 and 2.511 and 5.618
